From a melting point compilation (Tetko et al.; mined from patent text by program, amines drawn as free bases though some values may be those of a salt)

Structure (SMILES) | melting point [°C]
C=CCOC1C(NC(C)=O)C(OCc2ccccc2)OC(COCc2ccccc2)C1OCc1ccccc1 (centres undefined) | 138
NC(=O)c1ccc2cc(O)ccc2c1 | 205 to 206
CC(C)=C(C=O)CC(=O)O | 102
N#CCCN1CC2C(C1)C2Nc1ncc2cc(-c3ccccc3Cl)c(=O)n(C3CC3)c2n1 (centres undefined) | 150 to 152
CC(C)(C)OC(=O)N1CC(c2ccc(N=C(c3ccccc3)c3ccccc3)nc2)C1 | 104 to 105
CC1Cc2ccc(Br)cc2C(c2ccc(N)cc2)=NN1C(=O)C(F)(F)F (centres undefined) | 93 to 96
O=C1OCN(C(=O)OCc2ccccc2)[C@H]1CCBr | 85
O=C1COc2cc(NC(=O)C(=O)N3CCC(C(O)c4ccccc4)CC3)ccc2N1 (centres undefined) | 195 to 197
CCOC1CC2(C)C(CCC3C4CCC(=O)C4(C)CC(=O)C32)CC1O (centres undefined) | 164 to 167
O=C(O)COc1ccc(OCCCCc2ccccc2)cc1 | 116 to 117
O=C(O)C=CC(=O)c1ccc(Oc2cccc(Cl)c2)cc1 | 110 to 111
CCCCCCCCCCCCC(C)(C)NC(=O)Nc1ccccc1C(=O)NC1CCN(C(c2ccccc2)c2ccccc2)CC1 | 146 to 148
COC(=O)c1cc(OCc2cc(SC)cc(SC)c2)cc(OCc2cc(SC)cc(SC)c2)c1 | 121 to 122
NCC(=O)Nc1ccc(Br)cc1C(=NCCO)c1ccccc1F | 167 to 168
Cc1ccc(S(=O)(=O)Oc2ccc(C=O)cc2)cc1 | 70 to 72
O=C1Nc2ccccc2C1=Cc1ccccc1 | 177 to 179
O=C(C=Cc1ccc(OCc2ccccc2)c([N+](=O)[O-])c1)N1CCCCC1 | 155 to 156
CN1CC(c2ccc(Cl)cc2)C(=O)C(c2cccc(Cl)c2)C1 (centres undefined) | 126
NC(=O)Nc1cccc(OCCCCl)c1 | 141 to 143
CCCCCCCCCCCC1OC1C(=O)O (centres undefined) | 76 to 77
CC(=O)OC1CSC(Oc2cccnc2[N+](=O)[O-])C(OC(C)=O)C1OC(C)=O (centres undefined) | 178

Structure (SMILES) | melting point [°C]
O=C1CC(Cc2ccc(F)cc2)CN1 (centres undefined) | 88.5 to 90
O=C(O)C1CCc2cc([N+](=O)[O-])ccc2O1 (centres undefined) | 180
Fc1ccc(-c2n[nH]c(-c3ccncc3)c2-c2ccncc2)cc1 | 304
COc1ccc(COC(=O)C2=C(C3CCCO3)OC[C@@H]3[C@H](NC(c4ccccc4)(c4ccccc4)c4ccccc4)C(=O)N23)cc1 (some centres undefined) | 129 to 131
O=C(O)C1c2ccccc2Cc2ccccc21 | 139
COC(=O)c1cc(-c2ccccc2)c(=O)n2c1-c1sccc1S(=O)(=O)C=C2 | 241 to 243
COc1cc(OCC2CCCO2)ccc1/C=C/C(=O)CC(=O)/C=C/c1ccc2cc[nH]c2c1 (centres undefined) | 159 to 161
CC(C)C[C@H](NC(=O)OCC1CC=CCC1)C(=O)N[C@@H](Cc1ccccc1)C(=O)CSCc1ccco1 (some centres undefined) | 85 to 87
O=C(O)COc1ccc(SCc2ccc(OCc3ccc(C(F)(F)F)cc3)cc2)c2c1CCC2 | 145
Nc1cc(C(=O)OCc2ccccc2)ccc1OCc1ccccc1 | 79 to 81
CN1C(=O)N(c2cc(Cl)cc(Cl)c2)C(=O)[C@]12CN(c1ccc(Cl)nn1)C[C@H]2c1ccc(C#N)cc1 (relative stereo) | 125
COC(=O)c1cccc(Nc2nccc(-c3cn[nH]c3-c3ccc(F)cc3)n2)c1 | > 265
CCOC(=O)C=CC=CCCC(C)C1CCC2C3CCC4CC(OC(C)=O)CCC4(C)C3CC(OC(C)=O)C12C (centres undefined) | 129 to 131
CN(C)C(=O)Oc1ccc2c(c1)[nH]c(=O)c1c3ccc(OC(=O)N(C)C)cc3oc21 | 255 to 269
CC(C)(C)NS(=O)(=O)c1cccc(NC(=O)c2cnn3c(C4CC4)cc(-c4ccc(Cl)cc4)nc23)c1 | 238 to 239
CC(C)(O)CC(O)=C(C#N)CC(=O)Nc1ccccc1 | 103
O=C1C(=O)c2ccccc2C2=C1SCC1(CCN(CCc3ccccc3)CC1)O2 | 117 to 118
CON(C)C(=O)/C=C/C(=C(c1ccc(F)cc1)c1ccc(F)cc1)C(C)C | 109 to 110
CN(C)CCOc1ccc2[nH]c(C(=O)N3CC(CCl)c4c3cc([N+](=O)[O-])c3cc(S(C)(=O)=O)ccc43)cc2c1 (centres undefined) | 250 to 252
N#CCN1CC[C@@H](NCc2ccccc2)[C@H](O)C1 (relative stereo) | 113
c1ccc2c(c1)CCN2Nc1ccncc1 | 125 to 126

Other lines, results leading:

melting point [°C] | Structure (SMILES)
179 to 180 | CCOc1cc(CC)ccc1C1CCN(CCCCNC(=O)c2ccc(-c3ccc(S(C)(=O)=O)cc3)cc2)CC1
181 to 182 | COC(CNC1=Nc2ccccc2Nc2ccccc21)OC
208 to 210 | O=[N+]([O-])c1ccc2nc(-c3cccs3)oc2c1
55 to 60 | Cc1sc(Cc2ccc(Br)cc2)c(C(=O)c2ccc(OS(=O)(=O)c3cnn(C)c3)c(C3CCCC3)c2)c1C
130 to 133 | Cc1ccc(C2C(=O)Oc3c2cc(C(C)(C)C)cc3C(C)(C)C)cc1 (centres undefined)
152 to 153 | COC(=O)c1nc(I)cc(N)c1Cl
161 to 164 | Cc1cc(NC(=O)OC(C)(C)C)c([N+](=O)[O-])cc1C#Cc1ccccc1
113 to 115 | CCOc1c(OC)cccc1C(=O)Nc1ccc(C(=O)OC)cc1C(=O)OC
91 to 93 | Cc1cc(-c2ccccc2)n2nc(SC(F)(F)F)nc2n1
189 to 190 | O=c1[nH]c2c(CCN3CCN(c4ncccn4)CC3)cccc2o1
112 to 114 | CCCCC(=NOCc1ccc(OCc2nc(-c3ccccc3)oc2C)cc1)C(=O)O
110 to 113 | COC(=O)c1cccc2oc(CBr)nc12
266 | Cc1cc2cc(C(=O)O)[nH]c2cc1C
103 to 104 | COC(=O)NCCOC(=O)C(C)Oc1ccc(Oc2cnc3cc(Cl)ccc3n2)cc1 (centres undefined)
140 to 142 | CC1=NN(CC(C)C)S(=O)(=O)c2sc(S(N)(=O)=O)cc21
160 to 165 | c1cn(CCc2ccc3c(c2)Cc2c(-c4ccsc4)n[nH]c2-3)cn1
211 to 213 | COc1ccc(C(=O)Nc2c(Cl)cncc2Cl)c2c1OC(C)C2C(=O)C1NCCc2ccccc21 (centres undefined)
124 to 126 | CCn1nc2oc(CO)c(C)c2c1C
220 | CCn1nc(C)c2c1C(=O)NCC(c1ccccc1O)=N2

melting point [°C] | Structure (SMILES)
148 to 149 | CCC(C)(Oc1ccc(F)cc1F)C(=O)Nc1nc(CC(=O)O)cs1 (centres undefined)
173 to 182 | S=C(NCCc1ccc(Cl)cc1)Nc1nc2ccccc2[nH]1
115 to 116 | CC(=O)N1CCc2cc(Cl)ccc21
102 to 106 | COc1ccccc1Oc1c(NS(=O)(=O)c2ccc(C(C)(C)C)cc2)nc(NCCN(C)C)nc1OCCO
240 | Cc1ccc2c(c1)c1cc(-c3ccc(Cl)cc3Cl)c(=O)n(C)c1n2CCO
103 to 105 | Cc1c(-c2ccccc2)oc2c(C(=O)OCC3CO3)cccc2c1=O (centres undefined)
58 to 59 | CCOCCCC(NC=O)C1(c2ccc(Cl)cc2)CCC1 (centres undefined)
128 to 133 | CCS(=O)(=O)N[C@H](C(=O)NCCc1ccc(OC/C=C/c2ccccc2)c(OC)c1)C(C)C
175 | CCC(Cc1c(C)cc(C(C)(C)C)c(O)c1C)(C(=O)OC1CC(C)(C)NC(C)(C)C1)C(=O)OC1CC(C)(C)NC(C)(C)C1
41 to 42 | CCOC(=O)c1ccc(/C=C(/COCc2ccc(OC)cc2)Cn2ccnc2)c(Cl)c1
234 | CC(C)(C)C(=O)Nc1nc(Cl)c2c(n1)[nH]c1ccccc12
97 to 99 | CC1(C)CC(O)c2cc(Br)ccc2O1 (centres undefined)
38 to 40 | CSc1nn(-c2c(Cl)cc(C(F)(F)F)cc2Cl)nc1C
131 to 133 | Cc1ccc(S(=O)(=O)Oc2ccc3c4c(nn3CCNCCO)-c3cnccc3C(=O)c24)cc1
197 to 200 | CCOC(=O)CCn1cnc2c(=O)[nH]cnc21
177 to 178 | CCCn1c(=O)n(-c2ccc3c(c2)OCO3)c2ncc(N)cc21
326 to 327 | O=C(O)c1cnc2n(c1=O)CCc1ccc(O)cc1-2
194 to 199 | CCCn1cnc2c1c1nnc(-c3ccncc3)n1c(=O)n2CCC
120 | COC(=O)c1cc(N)c(N(C)C(C)=O)c(N)c1

melting point [°C] | Structure (SMILES)
179 to 182 | COc1ccc(CCc2cc3cc(C#N)ccc3o2)c(C(=O)O)c1
114 to 116 | CSCc1cn(C)c2cc(C(C)(C)C)ccc2c1=O
71 to 72 | COc1ccc(CF)c(CN(C(C)=O)c2cc(F)ccc2Oc2ccccc2)c1
93 to 96 | COc1cc(C(=O)COC(C)=O)ccc1OCCCCl
78 to 84 | Cc1ccnn1-c1c(Cl)cc(C(F)(F)F)cc1Cl
131 to 132 | Cc1cc(-c2ccccc2)nn1CCN
65 | CCOCCOc1ccc(CCNC(=O)/C=C/c2cccs2)cc1S(=O)(=O)NC(=O)NC
122 to 124 | COc1ccc2c(c1)c(Cc1cc(=O)n(-c3ccc(C)nn3)[nH]1)c(C)n2C(=O)c1ccc(Cl)cc1
226 to 230 | COc1cc(OC)nc(NC(=O)NS(=O)(=O)c2cccnc2-n2cncn2)n1
159 to 160 | Cc1oc(C(C)(C)C)nc1CCOc1ccc(CC(OC(C)C)C(=O)O)c2sccc12 (centres undefined)
141 to 143 | Cc1csc(C(=O)NN)c1N
182 to 184 | CC(C)Sc1c(C(N)=O)sc2cccc(Cl)c12
112 to 115 | Cc1cnc(C)n1CC(=O)c1ccc(-c2ccc(N3C[C@H](Cn4ccnn4)OC3=O)cc2F)cn1
> 300 | Cn1ncc2[nH]c3ccc(Cc4cccc(C(N)=O)c4)cc3c(=O)c21
126 to 128 | CC(C)OC(=O)C1=C2SCC(=CC(=O)N(C)C)N2CC1C (centres undefined)
133 to 136 | CC(C)(CO)c1cc(Cl)nnc1Cl
200 to 201 | Cc1c(NC(=O)c2ccc(-c3ccc(F)cc3)cc2)ccc2cc(CN3CCC(CC(=O)N(C)C)CC3)cnc12
158 to 159 | CN(C)CCN1C(=O)C(NC(=O)c2ccc(NS(C)(=O)=O)cc2)C(C)(C)SC1=S (centres undefined)
128 to 130 | COC(=O)c1nc(NC(C)=O)ccc1Oc1cc(OC)cc(OC)n1
